This note sets out measurements from patent US12486287B2, “Solid forms of a promoter of spinogenesis” (Spinogenix, Inc., priority 2019, dated 2025).

Molecules are shown by their SMILES. Values after ≈ are worked out from the molar mass of the structure shown. Where only a bound is given, the exact number is not on record here.

The term solubility denotes the concentration that dissolves in the medium under given conditions.

Common to all, as to type: physicochemical
Series [1] is described as follows: Solid state stability evaluation (XRPD, PLM, HPLC purity after storage). To be noted: 30° C./65% RH and 40° C./75% RH, open and closed. As to the method:
Agilent 1260 HPLC with VWD detector was utilized and detailed chromatographic conditions for purity analysis are listed ill Table 1-4.
The solid state stability of Compound I was evaluated under conditions of 30° C./65% RH (open dish and closed container) and 40° C./75% RH (open dish and closed container) for 4 weeks. The detailed procedures utilized for stability evaluation are listed: 1) Weighed about 10 mg of Compound I starting material into 3-mL glass vials; 2) For the open dish conditions, covered the vials with Parafilm® and poked 6 holes. For the closed conditions, sealed the vials with caps and kept the vials in the corresponding conditions, respectively; For the condition of 40° C./75% RH, placed the vials in the stability chamber of 40° C./75% RH; For the condition of 30° C./65% RH, placed the vials in the airtight atmosphere generated by saturated aqueous potassium iodide solution in 30° C. bio-chemical; 4) Samples taken for XRPD, PLM, and HPLC purity after 3 days, 1 week, 2 weeks and 4 weeks.
Solid state stability evaluation of Compound I Form I starting material was performed under conditions of 30° C./65% RH (closed and open) and 40° C./75% RH (closed and open). X-ray powder diffraction (XRPD), polarizing microscope (PLM) and HPLC purity were characterized at 4 sampling points (3 days, 1 week, 2 weeks, 4 weeks).
For the single crystal structure determination, 83 single crystal growth experiments were performed by different methods including slow evaporation, liquid vapor diffusion, slow cooling, heating-cooling and solvent-thermal synthesis. The stability evaluation experiments in 40° C./75% RH condition were performed using stability chamber, while the 30° C./65% RH condition was set up by saturated aqueous potassium iodide solution in 30° C. bio-chemical incubator.

Series [2] can be described thus: Approximate solubility in single solvents at RT. Particulars: thermodynamic from solid, room temperature. As to the method: Approximate solubility of Compound I was determined in 20 single solvents at RT. Approximately 2 mg of powder sample was added into a 3-mL glass vial. Corresponding solvents were added stepwise (50 μL→100 μL→300 μL→1000 μL) into each vial until powder solids were completely dissolved visually or a total volume of 1 mL solvent was added. Approximate solubility values were calculated based on sample mass, solvent volume, and experimental observation. Results summarized in Table 3-1 were used to guide subsequent solvent selection in the design of polymorph screening experiments.

Series [3] in a line: Stability / interconversion of crystal forms (XRPD). As to the method:
Compound I was subjected to various crystallization conditions, including solid vapor diffusion, anti-solvent addition, liquid vapor diffusion, slow cooling, slurry conversion at various temperatures, temperature cycling, and slow evaporation. Crystalline forms of Compound I were analyzed by X-ray powder diffraction (XRPD), differential scanning calorimetry (DSC) and thermogravimetric analysis (TGA), while metastable forms were analyzed by XRPD. XRPD was performed with a Panalytical X'Pert3 Powder XRPD with a Si zero-background holder. The 2θ position was calibrated against a Panalytical Si reference standard disc.
Forms II and III only existed in the wet state and no solid was isolated for thermal analyses. Form V solids were obtained, however, Form V changed to Form I at around 50° C. upon drying in a vacuum oven. A summary of isolated forms and conditions is in Table 1-5 and Table 1-6.

As for `OCCOCCOCCOCCOc1ccc(-c2nc3ccccc3s2)cc1` [Compound I, 2-(2-(2-(2-(4-(benzo[d]thiazol-2-yl)phenoxy)ethoxy)ethoxy)ethoxy)ethan-1-ol], the “HPLC purity decrease after storage” value in series [1] (4 weeks) was “no significant HPLC purity decrease was observed”. The “Form change after storage (XRPD)” value in series [1] (up to 4 weeks) is listed as “no form change was observed”. The solubility was over 32 mg/mL in series [2] (organic solvent or mixture, 1,4-dioxane); 20 to 40 mg/mL (≈ 49.6 to 99.1 mM) in series [2] (organic solvent or mixture, 2-MeTHF); 6 to 18 mg/mL (≈ 14.9 to 44.6 mM) in series [2] (organic solvent or mixture, Acetone); 8 to 24 mg/mL (≈ 19.8 to 59.5 mM) in series [2] (organic solvent or mixture, Acetonitrile); under 2.6 mg/mL in series [2] (organic solvent or mixture, CPME); over 38 mg/mL in series [2] (organic solvent or mixture, DCM). Further, the solubility is over 44 mg/mL in series [2] (organic solvent or mixture, DMF); 18 to 36 mg/mL (≈ 44.6 to 89.2 mM) in series [2] (organic solvent or mixture, DMSO); 20 to 40 mg/mL (≈ 49.6 to 99.1 mM) in series [2] (organic solvent or mixture, EtOAc); 7.3 to 22 mg/mL (≈ 18.1 to 54.5 mM) in series [2] (organic solvent or mixture, EtOH); under 2.2 mg/mL in series [2] (organic solvent or mixture, Heptane); under 1.9 mg/mL in series [2] (organic solvent or mixture, IPA). Further, the solubility in series [2] (organic solvent or mixture, IPAc) was 1.7 to 5.7 mg/mL (≈ 4.21 to 14.1 mM); in series [2] (organic solvent or mixture, MEK), 18 to 36 mg/mL (≈ 44.6 to 89.2 mM); in series [2] (organic solvent or mixture, MIBK), 2.5 to 8.3 mg/mL (≈ 6.2 to 20.6 mM); in series [2] (organic solvent or mixture, MTBE), under 2 mg/mL; in series [2] (organic solvent or mixture, MeOH) it was 21 to 42 mg/mL (≈ 52 to 104 mM); in series [2] (organic solvent or mixture, THF), over 36 mg/mL. Besides, the solubility in series [2] (organic solvent or mixture, Toluene) was 6 to 18 mg/mL (≈ 14.9 to 44.6 mM); in series [2] (water, H2O), under 1.8 mg/mL.
With `OCCOCCOCCOCCOc1ccc(-c2nc3ccccc3s2)cc1` [Compound I Form III, 2-(2-(2-(2-(4-(benzo[d]thiazol-2-yl)phenoxy)ethoxy)ethoxy)ethoxy)ethan-1-ol], the “Stability of crystal form (conversion on storage, air exposure or drying)” value (“Stability of crystal form” for short) in series [3] (listed as Form III) is listed as “quickly converted to Form I upon exposure to open air”.
For `OCCOCCOCCOCCOc1ccc(-c2nc3ccccc3s2)cc1` [Compound I Form II, 2-(2-(2-(2-(4-(benzo[d]thiazol-2-yl)phenoxy)ethoxy)ethoxy)ethoxy)ethan-1-ol], in series [3] (listed as Form II), the “Stability of crystal form” value is “changed to a mixture of Form II and C or a mixture of Form III and Form V upon storage”.
As for `OCCOCCOCCOCCOc1ccc(-c2nc3ccccc3s2)cc1` [Compound I Form V, 2-(2-(2-(2-(4-(benzo[d]thiazol-2-yl)phenoxy)ethoxy)ethoxy)ethoxy)ethan-1-ol], the “Stability of crystal form” value in series [3] (listed as Form V) was “converted to Form I upon vacuum drying at ˜50 °C”.
